We go through three compounds from patent publication US20230355553A1, “COMPOSITIONS AND METHODS FOR TREATING AND/OR PREVENTING OCULAR DISORDERS” (University of Virginia Patent Foundation, priority 2020, published 2023).

Data set [1] concerns caspase-1 activation. Briefly: Western blot of Alu RNA-induced caspase-1 activation in mouse BMDMs. The following applies: Alu RNA-transfected mouse BMDMs, Fluoxetine 10 µM, n = 3 per group. The class given is cell-based. How it is done:
(§1) Cell culture. The human retinal pigment epithelial cell line ARPE-19 (ATCC) was maintained in Dulbecco’s Modified Eagle Medium (DMEM) supplemented with 10% fetal bovine serum (FBS) and standard antibiotics. Mouse bone marrow derived macrophages (BMDMs) were cultured in Iscove’s modified Dulbecco’s media (IMDM) with 10% FBS and 20% L929 supernatants. All cells were maintained at 37° C. in a 5% CO2 environment.
(§2) In order to test for the ability of fluoxetine to inhibit inflammasome activation, cells were transfected with (SEQ ID NO: 1) RNA or mock-transfected for 12 hour and pre-treated with Fluoxetine (10 µM) for 1 hour and again after Alu RNA (SEQ ID NO: 1) transfection. Supernatants were collected and were briefly spun down to remove floating cells. Proteins from the cell-free supernatant were precipitated by adding sodium deoxycholate (0.15% final) followed by adding TCA (7.2% final) and incubating on ice overnight. Samples were spun down at 13000 × g for 30 minutes and pellets were washed 2 times with ice-cold acetone. Precipitated proteins solubilized in 4X LDS Buffer with 2-mercaptoethanol were resolved by SDS-PAGE on NOVEX® brand Tris-Glycine Gels (Invitrogen Corporation, Carlsbad, California, United States of America) and transferred onto Immobilon-FL PVDF membranes (MilliporeSigma, Burlington, Massachusetts, United States of America). […]
Background: In western blotting, separated proteins are transferred to a membrane and probed.

The subject of data set [2] is amyloid beta-induced RPE degeneration. Briefly: Oligomerized amyloid beta-induced RPE degeneration in mice (fundus photos). The class given is in vivo, mouse. The following applies: subretinal oligomerized amyloid beta, fluoxetine 172 ng intravitreous, 7 days.
Method: The ability of fluoxetine to inhibit RPE degeneration induced by oligomerized amyloid beta was also tested. Oligomerized amyloid beta (0.6 micromoles; AnaSpec Inc., Fremont, California, United States of America) was injected into the subretinal space and fluoxetine (172 ng; TCI Chemicals) was injected into the vitreous humor. Fundus photos were captured 7 days later.
For data set [3], the system named is secreted IL-1β. Briefly: ELISA of secreted cytokine from mouse bone marrow derived macrophages. The class given is cell-based. The following applies: mouse BMDMs, B2 RNA (FIG. 3B), Fluoxetine 10 µM, P = 0.01.
The subject of data set [4] is caspase-1 activation. Briefly: Western blot of Alu RNA-induced caspase-1 activation in human ARPE19 cells. The following applies: Alu RNA-transfected human ARPE19 cells, Fluoxetine 10 µM, n = 3 per group. Format: cell-based. How it is done: as §1, §2
For data set [5], the system named is secreted IL-18. Briefly: ELISA of secreted cytokine from human ARPE-19 cells. Format: cell-based. The following applies: Alu RNA (FIG. 4A), Fluoxetine 10 µM, P < 0.005. For orientation: ELISA stands for enzyme-linked immunosorbent assay.
For data set [6], the system named is cataract formation. Briefly: Cataract formation after administration of fluoxetine preparations to the eye. The class given is in vivo.
Data set [7] relates to ASC specks. In words: ASC speck assay in BMDMs. Format: cell-based, mouse. The following applies: Alu RNA-transfected BMDMs; Fluoxetine 10 µM pretreatment 2 hours; n = 5; P = 0.006. How it is done:
The ASC speck assay was employed as a measure of inflammasome activation. BMDMs seeded on chambered coverslips (30,000 cells/well) for 12 hours were pretreated with Fluoxetine (10 µM) or 0.1% DMSO (control) for 2 hours. Cells were transfected with Alu RNA (SEQ ID NO: 1) using LIPOFECTAMINE™ 3000 brand transfection reagent (Thermo Fisher Scientific, Waltham, Massachusetts, United States of America) for 12 hours. Coverslips were fixed with 2% paraformaldehyde (15 minutes at room temperature), washed with PBS, permeabilized, blocked with blocking buffer (PBS, 0.1% TX-100, 5% normal goat serum; 1 hour at 4° C.) and incubated with anti-ASC antibody (Adipogen; 1:300) with blocking buffer. Nuclei were stained with DAPI. Slides mounted using FLUOROMOUNT-G® brand mounting medium (SouthernBiotech, Birmingham, Alabama, United States of America) were imaged by confocal microscopy (Nikon A1R). The numbers of specks per 40x field were compared by two-tailed Student’s t test.

Data set [8] has as its system Alu RNA-induced RPE degeneration. In words: Alu RNA-induced RPE degeneration in mice (ZO-1-stained RPE flat mounts). The following applies: subretinal Alu RNA 300 ng, drug 1 mM in 0.5 µl intravitreous 24 hours before and immediately after, 7 days. The class given is in vivo, mouse. The protocol:
Animals. Animal experiments were approved by the University of Virginia (UVA) Institutional Animal Care and Use Committee. C57BL/6J mice (The Jackson Laboratory) were anesthetized with ketamine hydrochloride and xylazine.
The ability of various antidepressant drugs to inhibit Alu RNA (SEQ ID NO: 1) induced RPE degeneration was tested in mice. In vitro transcribed Alu RNA (SEQ ID NO: 1; 300 ng in 1 µl) or vehicle control (PBS) were injected subretinally into mice. Fluoxetine (FLX), Citalopram (CIT), Paroxetine (PAR), Sertraline (SER), Escitalopram (ESC), Venlafaxine (VEN), Imipramine (IMI), Amitriptyline (AMI), Agomelatine (AGO; all from Cayman Chemical Company, Ann Arbor, Michigan, United States of America; 1 mM in 0.5 µl), or PBS was injected into the vitreous humor 24 hours before and immediately after Alu RNA (SEQ ID NO: 1) injections. Animals were euthanized 7 days after Alu RNA (SEQ ID NO: 1) injection, and the eyes were enucleated.
RPE health was assessed by immunofluorescence staining of zonula occludens-1 (ZO-1) on RPE flat mounts. Flat mounts were fixed with 2% paraformaldehyde, stained with rabbit polyclonal antibodies against mouse ZO-1 (Invitrogen; 1:100), and visualized with Alexa-594 (Invitrogen), and imaged using an A1R Nikon confocal microscope. Images were graded as healthy or degenerated in masked fashion. […]

Data set [9] relates to dry macular degeneration. Briefly: Health insurance claims analysis (PearlDiver database) of dry macular degeneration among patients with depression. The class given is in vivo, human. The text has this:
Data on patients with commercial health insurance was obtained from the PearlDiver Patient Records Database (Colorado Springs, Colorado, United States of America), which captures health care claims and medication usage for persons in the Humana network from 2007 to 2017. These de-identified data are Health Insurance Portability and Accountability Act-compliant and were deemed by the University of Virginia Institutional Review Board (IRB; University of Virginia, Charlottesville, United States of America) as exempt from IRB approval requirements.
Patients were included in the analysis if they had continuous enrollment in the plan for at least 1 year and had at least 2 medical claims of Depression and were at least 50 years of age at baseline. Individuals with pre-existing Dry Macular Degeneration (1 or more medical claims prior to diagnosis of Depression) were excluded. Disease claims were identified by International Classification of Diseases (ICD)-9-CM and ICD-10-CM codes.
Individuals were classified as receiving Fluoxetine if they filled one or more outpatient pharmacy prescriptions for generic or brand versions, either in sole form or as a combination medication, as identified by National Drug Codes of the Food and Drug Administration (FDA) of the United States.
Time to initial diagnosis of Dry Macular Degeneration, which was confirmed by 2 or more medical claims, was the dependent variable for this analysis.
To analyze the risk of Dry Macular Degeneration between those exposed to Fluoxetine and those not exposed to Fluoxetine, an adjusted Cox proportional hazards model was fit. The adjusted model included as covariates age, gender, race, smoking, and body mass index.
The event rates of dry macular degeneration in the general population and in the depression cohort are shown. Fluoxetine use was associated with a crude risk reduction of 28%. P < 0.0001 by χ2 test. Fluoxetine use was associated with a reduction in the hazard of developing dry macular degeneration. P < 0.0001 by likelihood ratio test.

For data set [10], the system named is Alu RNA-induced RPE degeneration. Briefly: Alu RNA-induced RPE degeneration in mice, racemic fluoxetine vs enantiomers (fundus photos). The class given is in vivo, mouse. The following applies: subretinal Alu RNA 180 ng, 172 ng drug intravitreous, 7 days.
Method: In vitro transcribed Alu RNA (SEQ ID NO: 1; 180 ng) was injected into the subretinal space of mice and 172 ng racemic fluoxetine (TCI Chemicals, Portland, Oregon, United States of America) or enantiomers of fluoxetine (Santa Cruz Biotechnology, Inc., Dallas, Texas, United States of America) was injected into the vitreous humor. Fundus photos were captured 7 days later. […] Arrowheads show the extent and intensity of degeneration of the retinal pigmented epithelium (RPE).

Molecules are shown by their SMILES.

Turning to `CNCCC(Oc1ccc(C(F)(F)F)cc1)c1ccccc1` (racemic) [Fluoxetine, N-methyl-3-phenyl-3-[4-(trifluoromethyl)phenoxy]propan-1-amine], the “caspase-1 activation (cleavage of pro-caspase-1 into active caspase-1)” value in data set [1] and in data set [4] was “reduced” in each case. The “RPE degeneration extent and intensity (fundus photos)” value (from here on “RPE degeneration extent and intensity”) was “reduced the RPE degeneration extent and intensity” in data set [2]; “reduced the RPE degeneration extent and intensity, although the protection was partial” in data set [10]. The “secreted IL-1β (FIG. 3B)” value in data set [3] was “statistically significantly reduced”. Besides, the “secreted IL-18 (FIG. 4A)” value in [5] was “statistically significantly reduced”. In data set [6], the “cataract formation, share of subjects” value is listed as “up to 50%”. In addition, the “ASC speck formation (number of specks per 40x field)” value in data set [7] is given as “inhibited”. Further, the “RPE degeneration (percentage of eyes with RPE degeneration)” value in data set [8] was “significantly reduced”. Besides, in data set [9] (Fluoxetine Use Yes vs. No, multivariate Cox regression corrected for age, gender, race, smoking, body mass index), the “Hazard Ratio (95% Confidence Interval) of developing dry macular degeneration” value is 0.590 (0.565, 0.616). Moreover, the “crude risk reduction of dry macular degeneration” value in data set [9] (Fluoxetine use vs no use, P < 0.0001 by χ2 test) is 28%. In [9] (Fluoxetine use, log rank test P < 0.0001 (FIG. 7)), the “rate of developing dry macular degeneration (Kaplan-Meier)” value is “slower rate”. Further, the “Event Rate of dry macular degeneration” value in data set [9] (Fluoxetine users (Ever), depression cohort) is recorded as 3.5%. Besides, the “Dry Macular Degeneration (#)” value in [9] (Fluoxetine users (Ever), depression cohort, age at least 50, 84,603 total patients) is 3,000.

Regarding `CNCC[C@@H](Oc1ccc(C(F)(F)F)cc1)c1ccccc1` [R-fluoxetine], in [10], the “RPE degeneration extent and intensity” value is listed as “more complete protection”.

Consider `CNCC[C@H](Oc1ccc(C(F)(F)F)cc1)c1ccccc1` [S-fluoxetine], for which the “RPE degeneration extent and intensity” value in data set [10] was “more complete protection”.
